# Tests used:
# [1] = molecular target: T1, Recombinant (1-346) HPK1 (h) (Homo sapiens, UniProt Q92918); test: HPK1 Human STE Kinase Enzymatic Radiometric Assay; assay type: biochemical; conditions: read-out: HPK1 IC50 nM Range*
# T1 construct: Recombinant (1-346) HPK1 (h) is incubated with 8 mM MOPS pH 7.0
# T1 sequence (Q92918 1-346): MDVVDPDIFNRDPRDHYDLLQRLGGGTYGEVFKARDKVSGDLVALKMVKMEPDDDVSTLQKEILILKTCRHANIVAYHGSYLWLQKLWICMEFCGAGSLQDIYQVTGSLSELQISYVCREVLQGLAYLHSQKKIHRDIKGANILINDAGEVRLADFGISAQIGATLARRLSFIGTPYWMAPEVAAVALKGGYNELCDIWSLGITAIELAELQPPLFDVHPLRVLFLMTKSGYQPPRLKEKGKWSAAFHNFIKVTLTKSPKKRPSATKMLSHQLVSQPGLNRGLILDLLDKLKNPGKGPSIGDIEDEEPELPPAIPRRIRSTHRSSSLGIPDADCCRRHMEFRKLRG
# Method: A stock solution of 10 mM of test compound is prepared in DMSO. The compound plate was prepared by 3-fold and 9-point serial dilutions. […] The reaction is initiated by The addition of the Mg/ATP mix. After incubation for 40 minutes at RT, the reaction is stopped by the addition of phosphoric acid to a concentration of 0.5%.
# Lck (h) = Lck (h) (Homo sapiens, UniProt P06239); test: Lck Human  Kinase Enzymatic Radiometric Assay; assay type: biochemical; conditions: read-out: Lck IC50 nM Range*
# Procedure, shortened: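 Substrate 33P-incorporation measured by scintillation counting after spotting on P30 filtermat and phosphoric acid washes. Human Lck reacted 40 min at RT in 50 mM Tris pH 7.5 with 10 mM MgAcetate, [gamma-33P]-ATP, 250 uM Cdc2 peptide, 0.1 mM EGTA and 0.1 mM Na3VO4.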
# Chain of Lck (h) (P06239 whole entry): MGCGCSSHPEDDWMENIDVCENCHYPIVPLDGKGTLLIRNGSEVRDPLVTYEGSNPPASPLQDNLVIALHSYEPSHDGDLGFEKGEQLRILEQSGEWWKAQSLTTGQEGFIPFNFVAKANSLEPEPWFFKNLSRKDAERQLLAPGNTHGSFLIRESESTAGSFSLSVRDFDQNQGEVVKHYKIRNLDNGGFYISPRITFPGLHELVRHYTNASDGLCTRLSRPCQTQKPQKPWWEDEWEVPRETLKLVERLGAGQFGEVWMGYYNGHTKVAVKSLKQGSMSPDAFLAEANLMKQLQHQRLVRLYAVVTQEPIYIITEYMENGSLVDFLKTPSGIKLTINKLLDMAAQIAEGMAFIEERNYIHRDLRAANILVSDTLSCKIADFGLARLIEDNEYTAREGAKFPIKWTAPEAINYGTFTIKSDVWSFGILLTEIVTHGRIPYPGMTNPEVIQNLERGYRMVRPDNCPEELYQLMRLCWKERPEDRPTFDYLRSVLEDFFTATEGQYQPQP
SMILES,IC50 [1] [nM],IC50 (Lck (h)) [nM]
"CCN1CCN(c2ccc(-c3cc(-c4ccc5c(c4)CCCNC5=O)c(N)nc3F)cc2)CC1 [I-67, 7-(2-amino-5-(4-(4-ethylpiperazin-1-yl)phenyl)-6-fluoropyridin-3-yl)-2,3,4,5-tetrahydro-1H-benzo[c]azepin-1-one]",11 to 100,> 1000
"CN1CCN(c2ccc(-c3cc(-c4ccc5c(c4)CCNC5=O)c(N)nc3F)cc2C(F)(F)F)CC1 [I-68, 6-(2-amino-6-fluoro-5-(4-(4-methylpiperazin-1-yl)-3-(trifluoromethyl)phenyl)pyridin-3-yl)-3,4-dihydroisoquinolin-1(2H)-one]",0.1 to 10,> 1000
"CCN1CCN(c2ccc(-c3cc(-c4ccc5c(c4)C(C)(C)CNC5=O)c(N)nc3F)cc2)CC1 [I-69, 6-(2-amino-5-(4-(4-ethylpiperazin-1-yl)phenyl)-6-fluoropyridin-3-yl)-4,4-dimethyl-3,4-dihydroisoquinolin-1(2H)-one]",0.1 to 10,101 to 1000
"CCN1CCN(c2ccc(-c3cc(-c4ccc5c(c4)CC(C)(C)NC5=O)c(N)nc3F)cc2)CC1 [I-70, 6-(2-amino-5-(4-(4-ethylpiperazin-1-yl)phenyl)-6-fluoropyridin-3-yl)-3,3-dimethyl-3,4-dihydroisoquinolin-1(2H)-one 2,2,2-trifluoroacetate]",11 to 100,> 1000
"CCN1C[C@H]2C[C@@]2(c2ccc(-c3cc(-c4ccc5c(c4)CCNC5=O)c(N)nc3F)cc2)C1 [I-71, 6-(2-amino-5-(4-((1R,5S)-3-ethyl-3-azabicyclo[3.1.0]hexan-1-yl)phenyl)-6-fluoropyridin-3-yl)-3,4-dihydroisoquinolin-1(2H)-one]",0.1 to 10,> 1000
"Nc1nc(F)c(-c2ccc([C@@]34C[C@@H]3CN(CC(F)F)C4)cc2)cc1-c1ccc2c(c1)CCNC2=O [I-72, 6-(2-amino-5-(4-((1R,5S)-3-(2,2-difluoroethyl)-3-azabicyclo[3.1.0]hexan-1-yl)phenyl)-6-fluoropyridin-3-yl)-3,4-dihydroisoquinolin-1(2H)-one]",11 to 100,> 1000
"Nc1nc(F)c(-c2ccc(C3=CCN(CC(F)F)CC3)cc2)cc1-c1ccc2c(c1)CCNC2=O [I-73, 6-(2-amino-5-(4-(1-(2,2-difluoroethyl)-1,2,3,6-tetrahydropyridin-4-yl)phenyl)-6-fluoropyridin-3-yl)-3,4-dihydroisoquinolin-1(2H)-one]",0.1 to 10,> 1000
"CN1CCN(c2ccc(-c3cc(-c4ccc5c(c4)CCNC5=O)c(N)nc3Cl)cc2)CC1 [I-74, 6-(2-amino-6-chloro-5-(4-(4-methylpiperazin-1-yl)phenyl)pyridin-3-yl)-3,4-dihydroisoquinolin-1(2H)-one]",11 to 100,> 1000
"CCN1CCN(c2ccc(-c3cc(-c4ccc5c(c4)CCNC5=O)c(N)nc3Cl)cc2)CC1 [I-75, 6-(2-amino-6-chloro-5-(4-(4-ethylpiperazin-1-yl)phenyl)pyridin-3-yl)-3,4-dihydroisoquinolin-1(2H)-one]",11 to 100,> 1000
"CCN1CC=C(c2ccc(-c3cc(-c4ccc5c(c4)CCNC5=O)c(N)nc3F)cc2)CC1 [I-76, 6-(2-amino-5-(4-(1-ethyl-1,2,3,6-tetrahydropyridin-4-yl)phenyl)-6-fluoropyridin-3-yl)-3,4-dihydroisoquinolin-1(2H)-one]",0.1 to 10,> 1000
"CC(C)[C@H]1CN(c2ccc(-c3cc(-c4cc5c(cn4)C(=O)NCC5)c(N)nc3F)cc2)CCO1 [I-77, (S)-6-(2-amino-6-fluoro-5-(4-(2-isopropylmorpholino)phenyl)pyridin-3-yl)-3,4-dihydro-2,7-naphthyridin-1(2H)-one 2,2,2-trifluoroacetate]",0.1 to 10,> 1000
"Nc1nc(F)c(-c2ccc(C3CCCN(CC(F)F)C3)cc2)cc1-c1ccc2c(c1)CCNC2=O (stereo not drawn) [I-78, 6-(2-amino-5-(4-(1-(2,2-difluoroethyl)piperidin-3-yl)phenyl)-6-fluoropyridin-3-yl)-3,4-dihydroisoquinolin-1(2H)-one]",0.1 to 10,> 1000
"CC(C)N1CCC(c2ccc(-c3cc(-c4ccc5c(c4)CCNC5=O)c(N)nc3F)cc2)CC1 [I-79, 6-(2-amino-6-fluoro-5-(4-(1-isopropylpiperidin-4-yl)phenyl)pyridin-3-yl)-3,4-dihydroisoquinolin-1(2H)-one]",0.1 to 10,> 1000
"CC(C)N1CCCC(c2ccc(-c3cc(-c4ccc5c(c4)CCNC5=O)c(N)nc3F)cc2)C1 (stereo not drawn) [I-80, 6-(2-amino-6-fluoro-5-(4-(1-isopropylpiperidin-3-yl)phenyl)pyridin-3-yl)-3,4-dihydroisoquinolin-1(2H)-one]",0.1 to 10,> 1000
"CC(C)N1CC=C(c2ccc(-c3cc(-c4ccc5c(c4)CCNC5=O)c(N)nc3F)cc2)CC1 [I-81, 6-(2-amino-6-fluoro-5-(4-(1-isopropyl-1,2,3,6-tetrahydropyridin-4-yl)phenyl)pyridin-3-yl)-3,4-dihydroisoquinolin-1(2H)-one]",0.1 to 10,> 1000
"Nc1nc(F)c(-c2ccc(C3CCCN(CCO)C3)cc2)cc1-c1ccc2c(c1)CCNC2=O (stereo not drawn) [I-82, 6-(2-amino-6-fluoro-5-(4-(1-(2-hydroxyethyl)piperidin-3-yl)phenyl)pyridin-3-yl)-3,4-dihydroisoquinolin-1(2H)-one]",0.1 to 10,> 1000
"CC(C)(C)OC(=O)N1CCC(S(=O)(=O)c2ccc(-c3cc(-c4ccc5c(c4)CCNC5=O)c(N)nc3F)cc2)CC1 [I-83, tert-butyl 4-((4-(6-amino-2-fluoro-5-(1-oxo-1,2,3,4-tetrahydroisoquinolin-6-yl)pyridin-3-yl)phenyl)sulfonyl)piperidine-1-carboxylate]",11 to 100,> 1000
"Nc1nc(F)c(-c2ccc(S(=O)(=O)C3CNC3)cc2)cc1-c1ccc2c(c1)CCNC2=O [I-84, 6-(2-amino-5-(4-(azetidin-3-ylsulfonyl)phenyl)-6-fluoropyridin-3-yl)-3,4-dihydroisoquinolin-1(2H)-one]",11 to 100,> 1000
"CCS(=N)(=O)c1ccc(-c2cc(-c3ccc4c(c3)CCNC4=O)c(N)nc2F)cc1 (stereo not drawn) [I-85, 6-(2-amino-5-(4-(ethylsulfonimidoyl)phenyl)-6-fluoropyridin-3-yl)-3,4-dihydroisoquinolin-1(2H)-one]",11 to 100,> 1000
"CS(=N)(=O)c1ccc(-c2cc(-c3ccc4c(c3)CCNC4=O)c(N)nc2F)cc1 (stereo not drawn) [I-86, 6-(2-amino-6-fluoro-5-(4-(S-methylsulfonimidoyl)phenyl)pyridin-3-yl)-3,4-dihydroisoquinolin-1(2H)-one]",0.1 to 10,> 1000
"Nc1nc(F)c(-c2ccc(S(=O)(=O)C(F)(F)F)cc2)cc1-c1ccc2c(c1)CCNC2=O [I-87, 6-(2-amino-6-fluoro-5-(4-((trifluoromethyl)sulfonyl)phenyl)pyridin-3-yl)-3,4-dihydroisoquinolin-1(2H)-one]",11 to 100,> 1000
"CC1CN(c2ccc(-c3cc(-c4ccc5c(c4)CCNC5=O)c(N)nc3F)cc2)CCN1C (stereo not drawn) [I-88, 6-(2-amino-5-(4-(3,4-dimethylpiperazin-1-yl)phenyl)-6-fluoropyridin-3-yl)-3,4-dihydroisoquinolin-1(2H)-one]",0.1 to 10,> 1000
"Nc1nc(F)c(-c2ccc(C3CCCN(CC(F)(F)F)C3)cc2)cc1-c1ccc2c(c1)CCNC2=O (stereo not drawn) [I-89, 6-(2-amino-6-fluoro-5-(4-(1-(2,2,2-trifluoroethyl)piperidin-3-yl)phenyl)pyridin-3-yl)-3,4-dihydroisoquinolin-1(2H)-one]",11 to 100,> 1000
"Nc1nc(F)c(-c2ccc(C3CN(CC(F)(F)F)CCO3)cc2)cc1-c1ccc2c(c1)CCNC2=O (stereo not drawn) [I-90, 6-(2-amino-6-fluoro-5-(4-(4-(2,2,2-trifluoroethyl)morpholin-2-yl)phenyl)pyridin-3-yl)-3,4-dihydroisoquinolin-1(2H)-one]",11 to 100,> 1000
"Nc1nc(F)c(-c2ccc(N3C[C@H]4COC[C@H]4C3)cc2)cc1-c1ccc2c(c1)CCNC2=O [I-91, 6-(2-amino-6-fluoro-5-(4-((3aR,6aS)-tetrahydro-1H-furo[3,4-c]pyrrol-5(3H)-yl)phenyl)pyridin-3-yl)-3,4-dihydroisoquinolin-1(2H)-one]",11 to 100,> 1000
"Nc1nc(F)c(-c2ccc(N3C[C@@H]4CCO[C@@H]4C3)cc2)cc1-c1ccc2c(c1)CCNC2=O [I-92, 6-(2-amino-6-fluoro-5-(4-((3aS,6aS)-hexahydro-5H-furo[2,3-c]pyrrol-5-yl)phenyl)pyridin-3-yl)-3,4-dihydroisoquinolin-1(2H)-one]",0.1 to 10,> 1000
"Nc1nc(F)c(-c2ccc(C3CCCCN3CC(F)(F)F)cc2)cc1-c1ccc2c(c1)CCNC2=O (stereo not drawn) [I-93, 6-(2-amino-6-fluoro-5-(4-(1-(2,2,2-trifluoroethyl)piperidin-2-yl)phenyl)pyridin-3-yl)-3,4-dihydroisoquinolin-1(2H)-one]",11 to 100,> 1000
